These results are taken from ChEMBL document CHEMBL1909046, “DrugMatrix in vitro pharmacology data”.

System in the first data set: not listed separately
The data set can be described thus: DRUGMATRIX: Phosphodiesterase PDE3 enzyme inhibition (substrate: [3H]cAMP + cAMP). It counts as tissue-based, Homo sapiens. To be noted: platelet; Not Active = under 50% inhibition at 10 µM.
As for `CS(=O)(=O)c1ccc([C@@H](O)[C@@H](CO)NC(=O)C(Cl)Cl)cc1` [THIAMPHENICOL], the IC50 result is on record as “Not Active” and the Ki entry is “Not Active”.
For `CCN(CC)CCNC(=O)c1cc(S(C)(=O)=O)ccc1OC` [TIAPRIDE], the IC50 entry was “Not Active” and the Ki entry is on record as “Not Active”.
In the case of `Clc1ccccc1CN1CCc2sccc2C1` [TICLOPIDINE], the IC50 entry is recorded as “Not Active” and the Ki result is on record as “Not Active”.
As for `NC1CCN(c2nc3c(cc2F)c(=O)c(C(=O)O)cn3-c2ccc(F)cc2F)C1` (stereo not drawn) [TOSUFLOXACIN], the IC50 result is reported as “Not Active” and the Ki entry is “Not Active”.
For the compound `O=C(Nc1ccc(Br)cc1)c1cc(Br)cc(Br)c1O` [TRIBROMSALAN], the IC50 entry is listed as “Not Active” and the Ki entry is “Not Active”.
With `CC(c1cc2ccccc2s1)N(O)C(N)=O` (stereo not drawn) [ZILEUTON], the IC50 result is reported as “Not Active” and the Ki result is reported as “Not Active”.
On to MANGANESE CHLORIDE ANHYDROUS, for which the IC50 entry is “Not Active” and the Ki result is “Not Active”.
For SODIUM ORTHOVANAD, the IC50 entry is listed as “Not Active” and the Ki entry is on record as “Not Active”.

The target of another data set is Cytochrome P450 2E1 (Homo sapiens, UniProt P05181). To be noted: bti-tn-5b1-4. Note: in other assays of this panel Not Active means under 50% inhibition at 10 µM.
Sequence of Cytochrome P450 2E1 (P05181 whole entry): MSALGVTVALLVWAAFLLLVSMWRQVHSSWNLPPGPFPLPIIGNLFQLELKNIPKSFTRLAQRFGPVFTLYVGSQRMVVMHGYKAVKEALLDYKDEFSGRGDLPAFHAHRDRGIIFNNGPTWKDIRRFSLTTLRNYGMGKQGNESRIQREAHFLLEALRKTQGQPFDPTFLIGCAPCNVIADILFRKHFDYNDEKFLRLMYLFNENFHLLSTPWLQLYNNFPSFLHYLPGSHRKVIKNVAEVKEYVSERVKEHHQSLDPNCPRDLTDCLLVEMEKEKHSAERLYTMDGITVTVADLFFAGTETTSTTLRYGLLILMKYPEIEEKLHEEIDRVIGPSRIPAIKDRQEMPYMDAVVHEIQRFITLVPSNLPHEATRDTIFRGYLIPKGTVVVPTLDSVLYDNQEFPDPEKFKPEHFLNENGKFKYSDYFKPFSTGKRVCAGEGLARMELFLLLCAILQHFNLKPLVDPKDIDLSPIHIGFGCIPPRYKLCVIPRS
As to `CS(=O)(=O)c1ccc([C@@H](O)[C@@H](CO)NC(=O)C(Cl)Cl)cc1` [THIAMPHENICOL], the IC50 result is “Not Active” and the Ki entry is recorded as “Not Active”.
`CCN(CC)CCNC(=O)c1cc(S(C)(=O)=O)ccc1OC` [TIAPRIDE]: the IC50 result was “Not Active” and the Ki result was “Not Active”.
For the compound `Clc1ccccc1CN1CCc2sccc2C1` [TICLOPIDINE], the IC50 result was “Not Active” and the Ki entry is recorded as “Not Active”.
Turning to `NC1CCN(c2nc3c(cc2F)c(=O)c(C(=O)O)cn3-c2ccc(F)cc2F)C1` (stereo not drawn) [TOSUFLOXACIN], the IC50 result is “Not Active” and the Ki result is “Not Active”.
For the compound `O=C(Nc1ccc(Br)cc1)c1cc(Br)cc(Br)c1O` [TRIBROMSALAN], the IC50 entry is “Not Active” and the Ki result is “Not Active”.
Consider `CC(c1cc2ccccc2s1)N(O)C(N)=O` (stereo not drawn) [ZILEUTON], for which the IC50 entry is “Not Active” and the Ki result was “Not Active”.
With MANGANESE CHLORIDE ANHYDROUS, the IC50 entry is “Not Active” and the Ki result is given as “Not Active”.
For the compound SODIUM ORTHOVANAD, the IC50 entry is recorded as “Not Active” and the Ki entry is reported as “Not Active”.

A further data set has as its target T1, Alpha-1A adrenergic receptor (Rattus norvegicus, UniProt P43140).
T1 sequence (P43140 whole entry): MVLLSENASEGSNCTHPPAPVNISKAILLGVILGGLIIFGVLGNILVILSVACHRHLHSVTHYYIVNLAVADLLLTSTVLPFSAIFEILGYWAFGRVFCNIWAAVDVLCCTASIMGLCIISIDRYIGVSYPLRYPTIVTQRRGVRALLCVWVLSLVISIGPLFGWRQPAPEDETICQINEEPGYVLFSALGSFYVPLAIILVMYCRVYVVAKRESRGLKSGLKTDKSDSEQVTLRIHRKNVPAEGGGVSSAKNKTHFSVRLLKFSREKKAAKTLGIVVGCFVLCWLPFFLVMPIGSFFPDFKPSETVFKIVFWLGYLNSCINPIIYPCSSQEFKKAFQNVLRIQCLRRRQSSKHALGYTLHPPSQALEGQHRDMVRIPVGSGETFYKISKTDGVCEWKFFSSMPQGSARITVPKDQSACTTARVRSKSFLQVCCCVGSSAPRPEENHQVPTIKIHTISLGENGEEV
As to the kind of experiment: DRUGMATRIX: Alpha-1A adrenergic receptor radioligand binding (ligand: prazosin). It counts as cell membranes, Wistar, Submaxillary gland, Membrane. To be noted: Not Active = under 50% inhibition at 10 µM.
Take `CS(=O)(=O)c1ccc([C@@H](O)[C@@H](CO)NC(=O)C(Cl)Cl)cc1` [THIAMPHENICOL]: the IC50 entry is recorded as “Not Active”.
On the same count and under the same terms, for `CCN(CC)CCNC(=O)c1cc(S(C)(=O)=O)ccc1OC` [TIAPRIDE] the value was “Not Active”; for `Clc1ccccc1CN1CCc2sccc2C1` [TICLOPIDINE], “Not Active”; for `NC1CCN(c2nc3c(cc2F)c(=O)c(C(=O)O)cn3-c2ccc(F)cc2F)C1` (stereo not drawn) [TOSUFLOXACIN], “Not Active”.
As for `O=C(Nc1ccc(Br)cc1)c1cc(Br)cc(Br)c1O` [TRIBROMSALAN], the IC50 entry is listed as “Not Active”.
For `CC(c1cc2ccccc2s1)N(O)C(N)=O` (stereo not drawn) [ZILEUTON], the IC50 result is “Not Active”.
Regarding MANGANESE CHLORIDE ANHYDROUS, the IC50 entry is on record as “Not Active” and the Ki entry is “Not Active”.
In the case of SODIUM ORTHOVANAD, the IC50 entry is “Not Active” and the Ki result is “Not Active”.

Another data set deals with Aldo-keto reductase family 1 member B1 (Rattus norvegicus, UniProt P07943). The format is tissue-based, Lens of camera-type eye.
Conditions: not given
As to `CS(=O)(=O)c1ccc([C@@H](O)[C@@H](CO)NC(=O)C(Cl)Cl)cc1` [THIAMPHENICOL], the IC50 result is on record as “Not Active”.
For the compound `CCN(CC)CCNC(=O)c1cc(S(C)(=O)=O)ccc1OC` [TIAPRIDE], the IC50 result was “Not Active”.
Still for that read-out and setting: then `Clc1ccccc1CN1CCc2sccc2C1` [TICLOPIDINE], with “Not Active”.
Same read-out and setting: then `NC1CCN(c2nc3c(cc2F)c(=O)c(C(=O)O)cn3-c2ccc(F)cc2F)C1` (stereo not drawn) [TOSUFLOXACIN], with “Not Active”.
The same measure, in the same setting: for `O=C(Nc1ccc(Br)cc1)c1cc(Br)cc(Br)c1O` [TRIBROMSALAN] the value was “Not Active”; for `CC(c1cc2ccccc2s1)N(O)C(N)=O` (stereo not drawn) [ZILEUTON], “Not Active”.
For MANGANESE CHLORIDE ANHYDROUS, the IC50 entry is “Not Active” and the Ki result was “Not Active”.
Consider SODIUM ORTHOVANAD, for which the IC50 entry is recorded as “Not Active” and the Ki entry was “Not Active”.

For the next data set, the target named is T2, Calcitonin receptor (Homo sapiens, UniProt P30988). Note: in other assays of this panel Not Active means under 50% inhibition at 10 µM.
T2 sequence (P30988 whole entry): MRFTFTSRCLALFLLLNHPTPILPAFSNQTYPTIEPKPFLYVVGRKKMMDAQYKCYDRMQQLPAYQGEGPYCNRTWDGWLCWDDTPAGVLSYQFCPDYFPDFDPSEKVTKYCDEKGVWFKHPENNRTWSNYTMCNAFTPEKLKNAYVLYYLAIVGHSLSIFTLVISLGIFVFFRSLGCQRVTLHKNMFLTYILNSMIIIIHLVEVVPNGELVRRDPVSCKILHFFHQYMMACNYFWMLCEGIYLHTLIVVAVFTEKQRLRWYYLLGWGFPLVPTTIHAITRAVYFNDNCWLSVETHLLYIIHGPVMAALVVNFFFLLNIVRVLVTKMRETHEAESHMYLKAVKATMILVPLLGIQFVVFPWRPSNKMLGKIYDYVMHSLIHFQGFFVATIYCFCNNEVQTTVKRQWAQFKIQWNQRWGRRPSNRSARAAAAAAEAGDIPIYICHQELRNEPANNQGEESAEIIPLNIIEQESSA
The format is cell membranes, Membrane. The conditions noted are these: t47d.
On to `CS(=O)(=O)c1ccc([C@@H](O)[C@@H](CO)NC(=O)C(Cl)Cl)cc1` [THIAMPHENICOL], for which the IC50 result is reported as “Not Active”.
On the same count and under the same terms, then `CCN(CC)CCNC(=O)c1cc(S(C)(=O)=O)ccc1OC` [TIAPRIDE], with “Not Active”; and `Clc1ccccc1CN1CCc2sccc2C1` [TICLOPIDINE], with “Not Active”.
Consider `NC1CCN(c2nc3c(cc2F)c(=O)c(C(=O)O)cn3-c2ccc(F)cc2F)C1` (stereo not drawn) [TOSUFLOXACIN], for which the IC50 entry is reported as “Not Active”.
On the same count and under the same terms, then `O=C(Nc1ccc(Br)cc1)c1cc(Br)cc(Br)c1O` [TRIBROMSALAN], with “Not Active”.
With `CC(c1cc2ccccc2s1)N(O)C(N)=O` (stereo not drawn) [ZILEUTON], the IC50 entry is given as “Not Active”.
As to MANGANESE CHLORIDE ANHYDROUS, the IC50 entry is reported as “Not Active” and the Ki entry is “Not Active”.
Take SODIUM ORTHOVANAD: the IC50 entry is given as “Not Active” and the Ki result is listed as “Not Active”.

System in the next data set: not listed separately
The data set can be described thus: DRUGMATRIX: Sodium/nucleoside co-transporter radioligand binding (ligand: nitrobenzylthioinosine). It counts as cell membranes, Cavia porcellus, Dunkin-Hartley, Cerebral cortex, Membrane. To be noted: Not Active = under 50% inhibition at 10 µM.
As to `CS(=O)(=O)c1ccc([C@@H](O)[C@@H](CO)NC(=O)C(Cl)Cl)cc1` [THIAMPHENICOL], the IC50 result is given as “Not Active” and the Ki entry was “Not Active”.
Consider `CCN(CC)CCNC(=O)c1cc(S(C)(=O)=O)ccc1OC` [TIAPRIDE], for which the IC50 result is recorded as “Not Active” and the Ki entry is recorded as “Not Active”.
Take `Clc1ccccc1CN1CCc2sccc2C1` [TICLOPIDINE]: the IC50 result was “Not Active” and the Ki result is reported as “Not Active”.
On to `NC1CCN(c2nc3c(cc2F)c(=O)c(C(=O)O)cn3-c2ccc(F)cc2F)C1` (stereo not drawn) [TOSUFLOXACIN], for which the IC50 result is given as “Not Active” and the Ki entry is recorded as “Not Active”.
For the compound `O=C(Nc1ccc(Br)cc1)c1cc(Br)cc(Br)c1O` [TRIBROMSALAN], the IC50 entry was “Not Active” and the Ki result was “Not Active”.
In the case of `CC(c1cc2ccccc2s1)N(O)C(N)=O` (stereo not drawn) [ZILEUTON], the IC50 result is recorded as “Not Active” and the Ki entry is “Not Active”.
Take MANGANESE CHLORIDE ANHYDROUS: the IC50 result is recorded as “Not Active” and the Ki entry is listed as “Not Active”.
Consider SODIUM ORTHOVANAD, for which the IC50 result is “Not Active” and the Ki entry is reported as “Not Active”.

In another data set the target is Sodium-dependent dopamine transporter (Homo sapiens, UniProt Q01959). The data set can be described thus: DRUGMATRIX: Dopamine Transporter radioligand binding (ligand: [125I] RTI-55). The format is cell membranes, CHO-K1, Membrane. The conditions noted are these: cho-k1; Not Active = under 50% inhibition at 10 µM.
Sequence of Sodium-dependent dopamine transporter (Q01959 whole entry): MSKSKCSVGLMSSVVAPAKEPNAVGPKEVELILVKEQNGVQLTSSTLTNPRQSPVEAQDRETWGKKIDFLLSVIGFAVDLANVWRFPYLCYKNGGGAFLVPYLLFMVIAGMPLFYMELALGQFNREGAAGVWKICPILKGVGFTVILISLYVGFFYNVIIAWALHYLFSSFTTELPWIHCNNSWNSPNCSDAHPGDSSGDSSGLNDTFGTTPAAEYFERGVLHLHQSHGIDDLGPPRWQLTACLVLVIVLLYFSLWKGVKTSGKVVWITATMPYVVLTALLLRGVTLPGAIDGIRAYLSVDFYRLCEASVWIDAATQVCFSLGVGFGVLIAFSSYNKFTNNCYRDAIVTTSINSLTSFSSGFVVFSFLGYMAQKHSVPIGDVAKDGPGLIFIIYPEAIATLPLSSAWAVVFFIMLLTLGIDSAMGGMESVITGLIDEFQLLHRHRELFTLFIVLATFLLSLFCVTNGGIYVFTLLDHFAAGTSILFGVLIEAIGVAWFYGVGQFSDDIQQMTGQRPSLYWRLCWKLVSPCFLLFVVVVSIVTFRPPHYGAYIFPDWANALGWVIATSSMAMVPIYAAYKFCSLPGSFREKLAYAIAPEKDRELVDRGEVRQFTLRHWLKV
As to `CS(=O)(=O)c1ccc([C@@H](O)[C@@H](CO)NC(=O)C(Cl)Cl)cc1` [THIAMPHENICOL], the IC50 result was “Not Active”.
The same measure, in the same setting: for `CCN(CC)CCNC(=O)c1cc(S(C)(=O)=O)ccc1OC` [TIAPRIDE] the value was “Not Active”; for `Clc1ccccc1CN1CCc2sccc2C1` [TICLOPIDINE], “Not Active”.
The same measure, in the same setting: then `NC1CCN(c2nc3c(cc2F)c(=O)c(C(=O)O)cn3-c2ccc(F)cc2F)C1` (stereo not drawn) [TOSUFLOXACIN], with “Not Active”.
Still for that read-out and setting: for `O=C(Nc1ccc(Br)cc1)c1cc(Br)cc(Br)c1O` [TRIBROMSALAN] the value was “Not Active”; for `CC(c1cc2ccccc2s1)N(O)C(N)=O` (stereo not drawn) [ZILEUTON], “Not Active”.
For the compound MANGANESE CHLORIDE ANHYDROUS, the IC50 result is “Not Active” and the Ki entry was “Not Active”.
Take SODIUM ORTHOVANAD: the IC50 entry is listed as “Not Active” and the Ki entry is reported as “Not Active”.
